# Data taken from US20260176270A1 (Exelixis, Inc., priority 2022, published 2026).
# Where two headings read alike, the source gives them in different places.
# How the values were obtained:
# [1] = molecular target: T1, PKMYT1 (Homo sapiens, UniProt Q99640); test: ADP-Glo PKMYT1 ATP-depletion assay; details: 50 nM PKMYT1, 13.3 nM CDK1, read-out: Biochemical IC50
# T1 construct: PKMYT1 (93 kD, full length, N-terminal GST tag from Signal Chem); GST (N); purchased Signal Chem
# T1 sequence (Q99640 1-499): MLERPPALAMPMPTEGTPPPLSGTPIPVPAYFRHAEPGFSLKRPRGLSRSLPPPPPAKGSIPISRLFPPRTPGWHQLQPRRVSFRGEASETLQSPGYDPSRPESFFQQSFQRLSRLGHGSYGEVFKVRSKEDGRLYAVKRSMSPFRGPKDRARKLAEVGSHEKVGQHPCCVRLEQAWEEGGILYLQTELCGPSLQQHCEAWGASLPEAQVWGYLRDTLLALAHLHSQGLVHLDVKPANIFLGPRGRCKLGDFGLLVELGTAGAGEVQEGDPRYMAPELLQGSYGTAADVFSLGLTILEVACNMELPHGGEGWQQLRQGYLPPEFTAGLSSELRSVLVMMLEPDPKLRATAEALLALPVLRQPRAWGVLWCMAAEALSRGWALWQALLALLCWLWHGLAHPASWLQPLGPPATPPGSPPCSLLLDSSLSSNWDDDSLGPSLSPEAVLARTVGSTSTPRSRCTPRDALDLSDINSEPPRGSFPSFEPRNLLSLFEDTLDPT
# Summary of the method: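 Full-length N-terminal GST-tagged PKMYT1 (50 nM) with GST-CDK1 (13.3 nM) as substrate and 88 µM ATP, in Hepes buffer with MgCl2, MnCl2, DTT and BSA; DMSO <1%. Incubated 120 min at RT. ADP formed was quantified by ADP-Glo luminescence and used to derive biochemical IC50.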
# [2] = system: phosphorylation of CDK1 at Thr14 in HCC1806 cells; test: Cell lysate AlphaLISA assay measuring inhibition of phosphorylation of CDK1 Thr14; type: cell-based; details: read-out: Cellular IC50
# Summary of the method: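 HCC1806 cells seeded overnight, then treated 4 h at 37 °C, 5% CO2 with compounds in DMSO; washed and lysed, lysates frozen overnight at −80 °C. CDK1 Thr14 phosphorylation read by AlphaLISA SureFire Ultra; data normalized to DMSO (0% inhibition) and 3 μM reference compound to give IC50.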
Structure (SMILES),IC50 [1] [nM],"IC50 ([2]; Homo sapiens, HCC1806, 4 h) [nM]",IC50 ([2]; 4 hours) [nM]
Cc1cnncc1-c1c(N)c(C(N)=O)nc2cccnc12 [Compound 257],≥ 5000,≥ 5000,–
Cc1c(O)cccc1-c1c(N)c(C(N)=O)nc2c(=O)[nH]cnc12 [Compound 282],50 to 500,≥ 5000,–
Cc1cc(O)c(C)c(-c2c(N)c(C(N)=O)nc3cccnc23)c1 [Compound 291],1000 to 5000,–,≥ 5000
NC(=O)c1nc2cccnc2c(-c2cccc3c2CC(=O)N3)c1N [Compound 293],≥ 5000,≥ 5000,–
CC1=C(c2c(N)c(C(N)=O)nc3cccnc23)CCCC1=O [Compound 303],≥ 5000,≥ 5000,–
CC1=C(c2c(N)c(C(N)=O)nc3cccnc23)CCC[C@@H]1O [Compound 310],≥ 5000,≥ 5000,–
Cc1cc2nc(N)sc2cc1-c1c(N)c(C(N)=O)cc2nccnc12 [Compound 311],1000 to 5000,≥ 5000,–
COc1ccc2nc(C(N)=O)c(N)c(-c3cncc(C(F)F)c3C)c2n1 [Compound 314],500 to 1000,≥ 5000,–
COc1ccc2nc(C(N)=O)c(N)c(-c3cc(O)ncc3C)c2n1 [Compound 315],≥ 5000,≥ 5000,–
NC(=O)c1cc2nccnc2c(-c2cccc3cncn23)c1N [Compound 316],500 to 1000,≥ 5000,–
Cc1c(C#N)cncc1-c1c(N)c(C(N)=O)nc2cccnc12 [Compound 317],1000 to 5000,≥ 5000,–
Cc1c(O)cccc1-c1c(N)c(C(N)=O)cc2nc(N3CCOCC3)cnc12 [Compound 321],< 50,500 to 1000,–
CCn1ccc2cc(C(N)=O)c(N)c(-c3cccc(O)c3C)c2c1=O [Compound 324],50 to 500,–,500 to 1000
CCNc1cnc2c(-c3c(C)ccc(O)c3C)c(N)c(C(N)=O)cc2n1 [Compound 326],50 to 500,1000 to 5000,–
Cc1c(O)cc(O)cc1-c1c(N)c(C(N)=O)cc2nccnc12 [Compound 331],50 to 500,≥ 5000,–
COc1ccnc2cc(C(N)=O)c(N)c(-c3cccc(O)c3C)c12 [Compound 333],50 to 500,< 50,–
Cc1ccc(O)c(C)c1-c1c(N)c(C(N)=O)cc2nc(N3CCC4(COC4)C3)cnc12 [Compound 339],50 to 500,1000 to 5000,–

# Other lines, results leading:
IC50 [1] [nM],"IC50 ([2]; Homo sapiens, HCC1806, 4 h) [nM]",IC50 ([2]; 4 hours) [nM],Structure (SMILES)
< 50,50 to 500,–,NC(=O)c1nc2cccnc2c(-c2cncc(Cl)c2Cl)c1N [Compound 258]
500 to 1000,≥ 5000,–,NC(=O)c1nc2cccnc2c(-c2cnccc2C(F)(F)F)c1N [Compound 259]
≥ 5000,≥ 5000,–,Cc1c(O)cccc1-c1c(N)c(C(N)=O)nc2nccc(C#N)c12 [Compound 260]
≥ 5000,≥ 5000,–,Cc1c(O)cccc1-c1c(N)c(C(N)=O)nc2nccc(Cl)c12 [Compound 261]
50 to 500,–,500 to 1000,Cc1ccc(-c2c(N)c(C(N)=O)nc3cccnc23)c(C)c1O [Compound 292]
≥ 5000,≥ 5000,–,Cc1c(O)cccc1-c1c(N)c(C(N)=O)nc2nccc(O)c12 [Compound 297]
1000 to 5000,≥ 5000,–,Cc1ccc(O)c(C)c1-c1c(N)c(C#N)cc2nccnc12 [Compound 298]
50 to 500,–,≥ 5000,NC(=O)c1nc2cccnc2c(-c2cccc3[nH]nc(F)c23)c1N [Compound 306]
≥ 5000,≥ 5000,–,Cc1cccc(C)c1-c1c(N)c(C(N)=O)cc2nccnc12 [Compound 308]
≥ 5000,≥ 5000,–,CC1=C(c2c(N)c(C(N)=O)nc3cccnc23)CCC[C@H]1O [Compound 309]
< 50,–,50 to 500,COc1ccnc2c(-c3cccc(O)c3C)c(N)c(C(N)=O)cc12 [Compound 318]
50 to 500,500 to 1000,–,Cc1c(O)cccc1-c1c(N)c(C(N)=O)nc2cccc(S(C)(=O)=O)c12 [Compound 319]
≥ 5000,1000 to 5000,–,Cc1c(-c2c(N)c(C(N)=O)nc3cccnc23)cnn1C [Compound 320]
1000 to 5000,≥ 5000,–,NC(=O)c1nc2cccnc2c(-c2cnn3c2CCCC3)c1N [Compound 322]
1000 to 5000,≥ 5000,–,NC(=O)c1nc2cccnc2c(-c2cnn3ccccc23)c1N [Compound 323]
< 50,< 50,–,COc1ccnc2c(-c3c(C)ccc(O)c3C)c(N)c(C(N)=O)cc12 [Compound 330]
1000 to 5000,≥ 5000,–,Cn1ncc2c(-c3c(N)c(C(N)=O)nc4cccnc34)cncc21 [Compound 332]
1000 to 5000,≥ 5000,–,Cc1c(O)cncc1-c1c(N)c(C(N)=O)nc2c1NCCC2 [Compound 334]
50 to 500,1000 to 5000,–,Cc1c(O)cccc1-c1c(N)c(C(N)=O)cc2ccncc12 [Compound 335]
50 to 500,1000 to 5000,–,Cc1c(O)cccc1-c1c(N)c(C(N)=O)nc2cccc(C(N)=O)c12 [Compound 338]
